Test results as given in US20040198795A1, “Substituted imidazoliums and methods of use therefor” (priority 1996, published 2004).

What was measured:
[1] = target: T1, AGE-BSA previously crosslinked to the collagen (Bos taurus, UniProt P02769); test: Sandwich enzyme immunoassay for breaking of AGE-BSA cross-linked to collagen; assay type: biochemical; conditions: 10 mM, 16 hours, 37° C.; for % breaking, Pr AbαAGE: primary antibody anti-AGE-RNase; for % breaking, PrAbαBSA: primary antibody anti-BSA
T1 construct: Bovine Serum Albumin (Type V), (BSA) Calbiochem; purchased Calbiochem (BSA, Type V); Collaborative Biomedical Products (Biocoat collagen plates)
Experimental: In order to ascertain the ability of the compounds of the instant invention to “break” or reverse already formed advanced glycosylation endproducts, a novel sandwich enzyme immunoassay was developed which detects breaking of AGE (Advanced glycosylation endproduct) moieties from AGE-crosslinked protein. […] Following an incubation period of 16 hours (37° C.) cross-link-breaking is detected using an antibody raised against AGE-ribonuclease or with an antibody against BSA. […] Details of the assay are as follows:
1. AGE-BSA stock solutions were prepared as follows. Sodium phosphate buffer (0.4 M) was prepared by dissolving 6 grams of monobasic sodium phosphate in 100 ml of distilled water, 7 grams of dibasic sodium phosphate (0.4 M) in 100 ml of distilled water and adjusting the pH of the dibasic solution to 7.4 with the monobasic solution. Sodium azide (0.02 grams) was added per 100 ml volume to inhibit bacterial growth. The BSA solution was prepared as follows: 400 mg of Type V BSA (bovine serum albumin) was added for each ml of sodium phosphate buffer (above). A 400 mM glucose solution was prepared by dissolving 7.2 grams of dextrose in 100 ml of sodium phosphate buffer (above). The BSA and glucose solutions were mixed 1:1 and incubated at 37° C. for 12 weeks. The pH of the incubation mixture was monitored weekly and adjusted to pH 7.4 if necessary. After 12 weeks, the AGE-BSA solution was dialyzed against PBS for 48 hours with four buffer changes, each at a 1:500 ratio of solution to dialysis buffer.
2. Working solutions for crosslinking and breaking studies were prepared as follows. Test compounds were dissolved in PBS and the pH was adjusted to pH 7.4 if necessary. […] The concentration of AGE-BSA necessary to achieve the optimum sensitivity was determined by initial titration of each lot of AGE-BSA.
1. Biocoat plates were blocked with 300 μl of “Superbloc”. Plates were blocked for one hour at room temperature and were washed with PBS-Tween three times with the Dynatech platewasher before addition of test reagents.
2. Each experiment was set up in the following manner. The first three wells of the Biocoat plate were used for the reagent blank. Fifty microliters of solutions AGE-BSA were added to test wells in triplicate and only PBS in blank wells.

[2] = tested on: AGE receptor on macrophages (RAW 264.7 cells); test: Radioligand binding assay for upregulation of the AGE receptor on macrophages; assay type: cell-based; conditions: iodinated AGE-BSA
Experimental: To study the effects of test compounds on the upregulation of the AGE receptor on macrophages, the following radioligand binding assay was utilized.
2. One day prior to assay, 1.0 ml of cells are plated per well onto 24 well culture plates at a concentration of 0.75×10^6 cells per ml.
4. […] One ml of the ligand mixture is added to the appropriate wells and the plates are place at 4° C. on a rocking platform for four hours.
6. To each well is added 1.0 ml of 1.0 N sodium hydroxide for fifteen to thirty minutes. The disrupted cells are removed using a cotton tipped swab. After placing the swab in the appropriate tube for gamma counting, the medium remaining in each well is collected and added to the tubes containing the swabs. Each well is washed twice with 0.5 ml of 1.0 N sodium hydroxide which is then added to the appropriate tubes.
7. The samples are counted in an LKB gamma counter and the final numbers are used to determine the percent specific binding as well as the Ka, the Kd and the number of receptors per cell.

[3] = target: cross-linking of glycated bovine serum albumin (AGE-BSA) to the rat tail tendon collagen (Bos taurus, UniProt P02769); test: Inhibition of cross-linking of AGE-BSA to rat tail tendon collagen coated plate (ELISA); conditions: for % Inh.: at 10 mM, PBS pH 7.4, 37° C., 4 hours
Experimental: The following method was used to evaluate the ability of the compounds of the present invention to inhibit the cross-linking of glycated bovine serum albumin (AGE-BSA) to the rat tail tendon collagen coated 96-well plate.
The glycated BSA was then extensively dialyzed against phosphate buffer solution (PBS) for 48 hours with additional 5 times buffer exchanges. […] The blocking solution was removed from the wells by washing the plate twice with PAS-Tween 20 solution (0.05% Tween 20) using a NUNC-multiprobe or Dynatech ELISA-plate washer. […] The unbrowned BSA in PBS buffer with or without testing compound were added to the separate wells as the blanks. The uncross-linked AGE-BSA was then removed by washing the wells three times with PBS-Tween buffer. The cross-linked AGE-BSA to the tail tendon coated plate was then quantitated by the polyclonal antibody raised against AGE-RNase. After a one-hour incubation period, AGE antibody was removed by washing 4 times with PBS-Tween.
The bound AGE antibody was then detected with the addition of horseradish peroxidase-conjugated secondary antibody, e.g., goat anti-rabbit immunoglobulin and incubation for 30 minutes. […] The reaction was allowed for an additional 15 minutes and the absorbance was read at 410 nm in a Dynatech plate reader.
The % inhibition of each test compound was calculated as follows.

[4] = tested on: glomerular basement membrane thickness; conditions: streptozotocin-diabetic rat model; cited from earlier work
red blood cells = conditions: in vivo; cited from earlier work
[5] = tested on: aortic wall protein cross-linking; conditions: diabetic rats; cited from earlier work
[6] = tested on: immunoglobulin trapping in the kidney; conditions: Brownlee et al. 1986; cited from earlier work
[7] = tested on: fixed protein (gelatin, i.e., collagen) surface; test: Surface browning experiment on gelatin/paper disks with glucose-6-phosphate; conditions: Peridex at final 0.04% chlorhexidine, 100 Mm glucose-6-phosphate, one week at 50° C., pH 7.4
Experimental: To further study the ability of inhibitors of nonenzymatic browning to prevent the discoloration of protein on a surface, such as that which occurs on the tooth surface, the following surface browning experiment is performed. As a substitute for a pellicle-covered tooth surface, unexposed and developed photographic paper is used to provide a fixed protein (gelatin, i.e., collagen) surface on a paper backing. Five millimeter circles are punched and immersed for one week at 50° C. in a solution of 100 Mm glucose-6-phosphate in a 0.5 M phosphate buffer, pH 7.4, containing 3 Mm sodium azide. Glucose-6-phosphate is a sugar capable of participating in nonenzymatic browning at a more rapid rate than glucose. In addition to the glucose-6-phosphate, chlorhexidine and/or a compound of Formula I are included. After incubation, the gelatin/paper disks are rinsed with water, observed for brown color, and photographed.

[8] = Nordbo 1979; cited from earlier work

Sequence of cross-linking of glycated bovine serum albumin (AGE-BSA) to the rat tail tendon collagen (P02769 25-607): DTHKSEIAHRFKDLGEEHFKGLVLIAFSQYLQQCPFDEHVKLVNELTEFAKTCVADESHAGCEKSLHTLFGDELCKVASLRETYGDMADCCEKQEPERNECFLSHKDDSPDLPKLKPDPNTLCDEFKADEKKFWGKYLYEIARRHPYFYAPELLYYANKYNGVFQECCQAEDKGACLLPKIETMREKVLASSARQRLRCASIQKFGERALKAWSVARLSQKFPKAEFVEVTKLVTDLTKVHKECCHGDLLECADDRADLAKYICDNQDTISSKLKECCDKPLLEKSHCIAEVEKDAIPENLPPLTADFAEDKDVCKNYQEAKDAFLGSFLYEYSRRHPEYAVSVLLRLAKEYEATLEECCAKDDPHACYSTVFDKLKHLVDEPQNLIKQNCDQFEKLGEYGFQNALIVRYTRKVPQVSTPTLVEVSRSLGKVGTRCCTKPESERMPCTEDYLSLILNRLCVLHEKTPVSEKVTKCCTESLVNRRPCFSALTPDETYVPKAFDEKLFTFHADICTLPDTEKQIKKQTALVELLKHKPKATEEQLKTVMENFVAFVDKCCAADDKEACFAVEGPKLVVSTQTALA
T1 sequence (P02769 25-607): as above

## Cn1cc[n+](CC(N)=O)c1.[Br-]
other
  melting point: 183 to 185 °C

## Cn1cc[n+](CC(=O)c2ccccc2)c1.[Br-]
other
  melting point: 108 to 110 °C

## 1-methyl-3-[2-(3′-methoxyphenyl)-2-oxoethyl]-imidazolium bromide
[1]
  % breaking, Pr AbαAGE: 20%
  % breaking, PrAbαBSA: 24%
[2]
  Specific Binding Expressed as % Control, Day 1: 125%
  Specific Binding Expressed as % Control, Day 2: 132%
  Specific Binding Expressed as % Control, Day 3: 143%
  Specific Binding Expressed as % Control, Day 4: 360%

## CCOC(=O)CCCCCn1cc[n+](CC(=O)c2cccc(OC)c2)c1.[Br-] [1-(ethoxycarbonylpentyl)-3-[2-(3′-methoxyphenyl)-2-oxoethyl]-imidazolium bromide]
[3]
  % Inh.: 40%

## CCN(CC)c1ccc(C(=O)Cn2cc[n+](C)c2)cc1 [1-Methyl-3-[2-(4′-diethylaminophenyl)-2-oxo-ethyl]-imidazolium bromide]
[1]
  % breaking, Pr AbαAGE: 32%
  % breaking, PrAbαBSA: 28%
[3]; rat, 4 h, pH 7.4
  IC50: 1.75 mM

## Cn1cc[n+](CC(=O)c2ccc(Br)cc2)c1.[Br-] [1-methyl-3-[2-(4′-bromophenyl)-2-oxoethyl]-imidazolium bromide]
[3]
  % Inh.: 23%

## COc1ccc(C(=O)C[n+]2ccn(C)c2)cc1.[Br-] [1-methyl-3-[2-(4′-methoxyphenyl)-2-oxoethyl]-imidazolium bromide]
[1]
  % breaking, Pr AbαAGE: 38%
  % breaking, PrAbαBSA: 27%
[2]
  Specific Binding Expressed as % Control, Day 1: 185%
  Specific Binding Expressed as % Control, Day 2: 132%
  Specific Binding Expressed as % Control, Day 3: 145%
  Specific Binding Expressed as % Control, Day 4: 423%

## N=C(N)NN [aminoguanidine]
[4]
  Increased glomerular basement membrane thickness: prevented
Red blood cells
  Diabetes-induced changes in the deformability of red blood cells: prevent it
[5]
  Aortic wall protein cross-linking: diminishes aortic wall protein cross-linking
[6]
  Immunoglobulin trapping in the kidney: reduction of immunoglobulin trapping in the kidney

## [H]/N=C(\N/C(=N/[H])NCCCCCCNC(=N)NC(=N)Nc1ccc(Cl)cc1)Nc1ccc(Cl)cc1 [chlorhexidine]
[7]
  Brown color of gelatin/paper disks: significant browning
[8]
  Effect on browning reactions in vitro: catalyze browning reactions

## benzalkonium chloride
[8]
  Effect on browning reactions in vitro: catalyze browning reactions
